Test results published in the supplement of paper PMC8960247.
Counter-ions that a name gives are not always drawn. ± gives the standard error.

How the values were obtained:
[1] = test system: 621-102 (TSC2-deficient); assay: relative viability vs DMSO (fraction); higher = less cytotoxic; conditions: serum: 0.1% FBS, 72 h
[2] = test system: UMB1949 (TSC2-deficient); assay: as above; conditions: serum: 0.1% FBS, 72 h;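 further: renal angiomyolipoma cell lines screened in 384-well plates, viability normalized per plate to DMSO-treated cells, each plate carrying 50 nM rapamycin and 1 µM staurosporine controls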
[3] = test system: 621-102 (TSC2-deficient); assay: relative viability vs DMSO; higher = less cytotoxic; conditions: serum: 10% FBS, 72 h
[4] = test system: 621-103 (TSC2-rescued); assay: as above; conditions: serum: 10% FBS, 72 h

SMILES | relative viability ([1]; 0.0128 nM) | relative viability ([1]; 0.064 nM) | relative viability ([1]; 0.32 nM) | relative viability ([1]; 1.6 nM) | relative viability ([1]; 8 nM) | relative viability ([1]; 40 nM) | relative viability ([1]; 200 nM) | relative viability ([1]; 1000 nM) | relative viability ([1]; 5000 nM) | relative viability ([2]; 0.0128 nM) | relative viability ([2]; 0.064 nM) | relative viability ([2]; 0.32 nM) | relative viability ([2]; 1.6 nM) | relative viability ([2]; 8 nM) | relative viability ([2]; 40 nM) | relative viability ([2]; 200 nM) | relative viability ([2]; 1000 nM) | relative viability ([2]; 5000 nM) | relative viability ([3]; 0.0001 µM) | relative viability ([3]; 0.001 µM) | relative viability ([3]; 0.01 µM) | relative viability ([3]; 0.1 µM) | relative viability ([3]; 1 µM) | relative viability ([3]; 10 µM) | relative viability ([4]; 0.0001 µM) | relative viability ([4]; 0.001 µM) | relative viability ([4]; 0.01 µM) | relative viability ([4]; 0.1 µM) | relative viability ([4]; 1 µM) | relative viability ([4]; 10 µM)
CC(C)[C@H](C(=O)Nc1ccc(C(=O)NO)cc1)c1ccccc1 [AR-42] | 0.993 | 1.12 | 1.01 | 1.02 | 0.76 | 0.563 | 0.416 | 0.389 | 0.0646 | 1.03 | 1.11 | 1.12 | 1.07 | 0.89 | 0.548 | 0.0124 | 0.00772 | 0.00643 |  |  |  |  |  |  |  |  |  |  |  | 
CC(C)c1cc(C(C)C)c(CC(=O)NS(=O)(=O)Oc2c(C(C)C)cccc2C(C)C)c(C(C)C)c1 [Avasimibe] | 1.07 | 0.675 | 1.2 | 1.1 | 1.08 | 1.53 | 1.4 | 0.32 | 0.0125 | 1.13 | 1.12 | 1.19 | 1.06 | 1.08 | 1.1 | 1.02 | 0.00835 | 0.00834 |  |  |  |  |  |  |  |  |  |  |  | 
C#Cc1cccc(Nc2ncnc3cc(OC)c(OCCCCCCC(=O)NO)cc23)c1 [CUDC-101] | 0.714 | 0.529 | 0.505 | 0.386 | 0.343 | 0.123 | 0.127 | 0.005 | 0.0015 |  |  |  |  |  |  |  |  |  | 110.7 ± 0.61% | 108 ± 6.5% | 104 ± 1.9% | 95.14 ± 0.26% | 85.2 ± 2% | 30.6 ± 1.5% | 94.9 ± 1.2% | 99.73 ± 0.74% | 97.8 ± 1.4% | 93.79 ± 0.69% | 83.8 ± 2.3% | 2.28 ± 0.2%
CCC[C@H](Nc1nc(-c2ccc(NC(=O)NCC)c(OC)c2)ncc1C)c1cccnc1 [CYT997] |  |  |  |  |  |  |  |  |  | 0.622 | 0.0694 | 0.00719 | 0.0079 | 0.00595 | 0.00742 | 0.00575 | 0.00558 | 0.00511 | 87.8 ± 1.3% | 95.67 ± 0.75% | 48.6 ± 1.6% | 39.1 ± 0.56% | 36.2 ± 0.95% | 41 ± 1.1% | 82.2 ± 1.5% | 78.28 ± 0.4% | 40.2 ± 0.82% | 26.3 ± 2.2% | 24.3 ± 0.3% | 25.4 ± 2%
CC[C@@]1(O)C(=O)OCc2c1cc1n(c2=O)Cc2cc3ccccc3nc2-1 [Camptothecin] | 0.843 | 0.818 | 0.747 | 0.485 | 0.166 | 0.178 | 0.00844 | 0.00416 | 0.00456 | 0.995 | 0.913 | 0.83 | 0.129 | 0.0117 | 0.00478 | 0.00188 | 0.00182 | 0.00462 |  |  |  |  |  |  |  |  |  |  |  | 
Nc1ccn([C@@H]2O[C@H](CO)[C@@H](O)[C@@H]2O)c(=O)n1 [Cytarabine] | 1.24 | 1.08 | 1.14 | 0.885 | 1.01 | 0.505 | 0.244 | 0.096 | 0.0178 | 0.98 | 0.941 | 0.967 | 0.962 | 0.974 | 0.929 | 0.176 | 0.00531 | 0.0022 |  |  |  |  |  |  |  |  |  |  |  | 
COc1cccc2c1C(=O)c1c(O)c3c(c(O)c1C2=O)C[C@@](O)(C(=O)CO)C[C@@H]3O[C@H]1C[C@H](N)[C@H](O)[C@H](C)O1 [Doxorubicin (adriamycin)] | 0.343 | 0.2 | 0.0923 | 0.107 | 0.128 | 0.0761 | 0.0129 | 0.00359 | 0.00442 |  |  |  |  |  |  |  |  |  |  |  |  |  |  |  |  |  |  |  |  | 
CC1=NN(c2ccc(C)c(C)c2)C(=O)/C1=N\Nc1cccc(-c2cccc(C(=O)O)c2)c1O [Eltrombopag] | 1.19 | 0.961 | 0.994 | 0.991 | 0.875 | 0.926 | 1.43 | 0.074 | 0.0453 | 1.08 | 0.963 | 1 | 1.05 | 1.09 | 1.03 | 0.473 | 0.00551 | 0.00668 |  |  |  |  |  |  |  |  |  |  |  | 
CO[C@H]1C[C@@H]2CC[C@@H](C)[C@@](O)(O2)C(=O)C(=O)N2CCCC[C@H]2C(=O)O[C@H]([C@H](C)C[C@@H]2CC[C@@H](OCCO)[C@H](OC)C2)CC(=O)[C@H](C)/C=C(\C)[C@@H](O)[C@@H](OC)C(=O)[C@H](C)C[C@H](C)/C=C/C=C/C=C/1C [Everolimus(RAD001)] | 0.753 | 0.734 | 0.706 | 0.696 | 0.681 | 0.543 | 0.391 | 0.325 | 0.276 | 1 | 0.899 | 0.985 | 0.9 | 0.936 | 0.847 | 0.781 | 0.401 | 0.461 |  |  |  |  |  |  |  |  |  |  |  | 
COC1=C2C[C@@H](C)C[C@H](OC)[C@H](O)[C@@H](C)/C=C(\C)[C@H](OC(N)=O)[C@@H](OC)/C=C\C=C(/C)C(=O)NC(=CC1=O)C2=O [Geldanamycin] | 0.476 | 0.259 | 0.399 | 0.172 | 0.306 | 0.27 | 0.12 | 0.0204 | 0.0125 |  |  |  |  |  |  |  |  |  | 90.7 ± 2.4% | 91.7 ± 1.6% | 62.3 ± 3% | 39.82 ± 0.13% | 28.8 ± 1.5% | 8.32 ± 0.19% | 98.8 ± 6.2% | 77.8 ± 1.1% | 33.3 ± 7.4% | 10.09 ± 0.062% | 3.46 ± 0.37% | 3.05 ± 0.2%
Cc1ccc([N+](=O)[O-])cc1S(=O)(=O)N(C)/N=C/c1cnc2ccc(Br)cn12 [PIK-75 Hydrochloride] |  |  |  |  |  |  |  |  |  | 0.512 | 0.42 | 0.371 | 0.417 | 0.126 | 0.00679 | 0.00475 | 0.00356 | 0.00221 |  |  |  |  |  |  |  |  |  |  |  | 
CN(C)C1CCN(C(=O)c2ccc(NC(=O)Nc3ccc(-c4nc(N5CCOCC5)nc(N5CCOCC5)n4)cc3)cc2)CC1 [PKI587] | 0.515 | 0.487 | 0.471 | 0.338 | 0.266 | 0.196 | 0.128 | 0.0333 | 0.0113 |  |  |  |  |  |  |  |  |  |  |  |  |  |  |  |  |  |  |  |  | 
